Measured values from the NIST ThermoML archive (doi:10.1021/acs.jced.6b00513).
± gives the expanded uncertainty stated by the source.

details: 298.2 K; 101.3 kPa; Liquid; Buoyancy - hydrostatic balance

Row | Structure (SMILES) | mass density [kg/m3]
1 | CC(=O)CC(C)C [4-methylpentan-2-one] | 799.8 ± 6
2 | Cc1cccc(O)c1 [3-methylphenol] | 1034.5 ± 6
3 | O [water] | 997.2 ± 6
4 | Cc1cc(C)cc(C)c1 [1,3,5-trimethylbenzene] | 864 ± 6
5 | CCCCOC(C)=O [butyl ethanoate] | 882.2 ± 6
6 | CO [methanol] | 791 ± 6

same assay, conditions: 298.2 K; 101.3 kPa; Metastable liquid; Buoyancy - hydrostatic balance

Row | mass density [kg/m3] | Structure (SMILES)
7 | 1034.4 ± 6 | Cc1ccc(O)cc1 [4-methylphenol]
